Common to all, as to assay: in vivo wide-field GCaMP3 calcium imaging of identified glomeruli, awake mice
For one assay, the target named is T1, TAAR4 (Mus musculus, UniProt Q5QD15).
T1 construct: full-length native receptor from endogenous locus in olfactory sensory neurons; allele TAAR4-IRES-tauCherry (TAAR4-RFP); receptor itself untagged
T1 sequence (Q5QD15 1-347): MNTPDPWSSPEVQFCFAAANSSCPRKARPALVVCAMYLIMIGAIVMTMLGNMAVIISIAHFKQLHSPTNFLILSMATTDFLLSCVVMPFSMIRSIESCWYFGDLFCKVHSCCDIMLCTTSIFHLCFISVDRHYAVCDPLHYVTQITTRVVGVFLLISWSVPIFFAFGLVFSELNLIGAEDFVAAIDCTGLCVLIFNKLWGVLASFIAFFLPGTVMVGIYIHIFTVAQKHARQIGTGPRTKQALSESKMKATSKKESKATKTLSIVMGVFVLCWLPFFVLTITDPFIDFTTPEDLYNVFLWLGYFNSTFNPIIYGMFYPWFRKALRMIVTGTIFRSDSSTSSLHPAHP
The note with it: agonist; vapour-phase odorant concentration (flow dilution olfactometer), not aqueous; glomerular read-out.

In another assay the target is T2, TAAR3 (Mus musculus, UniProt Q5QD16).
T2 construct: full-length native receptor from endogenous locus in olfactory sensory neurons; allele TAAR3-IRES-tauVenus (TAAR3-YFP); receptor itself untagged
T2 sequence (Q5QD16 1-343): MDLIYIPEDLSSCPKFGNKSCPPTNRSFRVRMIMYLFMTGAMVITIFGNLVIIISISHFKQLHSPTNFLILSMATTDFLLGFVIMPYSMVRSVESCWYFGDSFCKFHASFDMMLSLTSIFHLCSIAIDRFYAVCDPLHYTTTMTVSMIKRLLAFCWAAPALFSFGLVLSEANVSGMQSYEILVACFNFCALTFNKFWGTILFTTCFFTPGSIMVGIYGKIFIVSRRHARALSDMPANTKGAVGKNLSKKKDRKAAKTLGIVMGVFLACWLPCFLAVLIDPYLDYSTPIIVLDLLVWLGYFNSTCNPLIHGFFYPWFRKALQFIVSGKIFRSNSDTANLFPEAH
The note with it: agonist, vapour-phase odorant concentration (flow dilution olfactometer), not aqueous, glomerular read-out.

Another assay addresses T3, TAAR5 (Mus musculus, UniProt Q5QD14).
T3 construct: full-length native receptor in olfactory sensory neurons; glomeruli identified by response profile and from separate TAAR5-RFP imaging experiments
T3 sequence (Q5QD14 1-337): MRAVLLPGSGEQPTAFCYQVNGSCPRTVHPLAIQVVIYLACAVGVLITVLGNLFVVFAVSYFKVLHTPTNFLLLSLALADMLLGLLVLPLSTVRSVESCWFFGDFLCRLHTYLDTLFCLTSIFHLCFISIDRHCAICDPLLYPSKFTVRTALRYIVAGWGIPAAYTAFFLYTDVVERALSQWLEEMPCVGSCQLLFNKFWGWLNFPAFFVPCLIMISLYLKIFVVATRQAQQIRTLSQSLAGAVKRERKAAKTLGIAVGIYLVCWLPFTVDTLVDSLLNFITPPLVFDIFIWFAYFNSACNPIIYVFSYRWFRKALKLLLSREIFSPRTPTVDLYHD
Particulars: agonist; vapour-phase odorant concentration (flow dilution olfactometer), not aqueous; glomerular read-out.

Broadly, the EC50 is the concentration needed to bring the measured effect to its halfway point.

In the case of `CN(C)C` [trimethylamine], the EC50 was determined as 470 nM at TAAR4, 790 nM on TAAR3 and 31 nM on TAAR5.

With `NCCc1ccccc1` [phenylethylamine], the EC50 at TAAR3 (printed CI does not contain the value) was 0.19 nM.

As for `CC(C)CCN` [isopentylamine], the results for the EC50 on TAAR4 and at TAAR3 were 9.9 nM and 0.41 nM, respectively.

The values above are taken from publication PMC6056506, “Single olfactory receptors set odor detection thresholds” (Nature Communications, 2018).
